Entries after “also recorded” stand apart in the source; their conditions may differ. Like-named read-outs stand apart in the source and are kept apart here.
Columns and labels:
[1] = Brain and plasma concentrations in mice after intraperitoneal administration (LC-MS-MS), non-compartmental analysis; type: in vivo; conditions: for concentration at 0.5 h / concentration at 1 h / concentration at 2 h / concentration at 4 h / concentration at 24 h / AUC(0-inf) / CL/F / Vd/F: 10 mg/kg
Protocol: Doses are reported by weight of the specified salt. […] Body mass was measured to ±0.1 g.
Mice were sacrificed by cervical dislocation, then decapitated for collection of brain and blood samples. Trunk blood was collected in 1.5 mL polypropylene micro-centrifuge tubes, shaken with a few crystals of EDTA and cooled in ice-water. Samples were centrifuged at 14,000 rpm (revolutions per minute) for 15 minutes at 3 °C, then stored in glass sample vials at −20 °C until analysis. Brains were removed and immersed for 30 seconds in 2-methylbutane over dry ice, then stored in polypropylene tubes at −20 °C until sample preparation. Sample tubes were thawed in ice-water, distilled water was added (2:1 by weight) and the brain homogenized with a probe sonicator for 3 minutes over ice-water (Fisher Sonic Dismembrator 300 at 35% power). The probe was rinsed with ethanol and distilled water between samples. Brain homogenate was stored in glass sample vials at −20 °C until analysis by LC-MS-MS.
Drug concentrations (ng mL^-1) refer to the free base, and were measured by liquid chromatography-tandem mass spectrometry (LC-MS-MS) as described previously. Briefly, samples were shaken with 3 volumes of methanol and centrifuged at 3000 g. Aliquots of the supernatants were diluted with 5 volumes of water containing an appropriate internal standard. Extracts from in vitro and in vivo experiments were analyzed by multiple reaction monitoring on an API3000 or API4000 LC-MS-MS system with electrospray ion source, controlled and analyzed using the Analyst software package (Applied Biosystems, Foster City, CA). Chromatography was conducted on a Sprite Armor C18 analytical column (20 × 2.1 mm, 10 μm particle size, Analytical Sales and Products, Pompton Plains, NJ) with a 0.5 μm PEEK guard filter. Compounds were eluted with a gradient from 2% to 95% acetonitrile in water, both containing 0.1% formic acid. Compounds were detected in positive ion mode, tuned to the mass transition with the largest intensity. Analyte concentrations were determined by comparison of analyte:internal standard peak area ratios to those of standards prepared in the appropriate matrices.
For calculation of mean concentrations, the earliest values below the MRC were substituted by MRC ÷ 2, as recommended elswhere. Pharmacokinetic parameters were calculated from mean concentrations using PKSolver, employing non-compartmental analysis for extravascular administration. Curves in figures were fitted using Origin 8.5 (OriginLab, Northampton, MA) using 2-compartment models. Confidence intervals and two-tailed p values (unpaired t test) were calculated using Graphpad Quickcalcs. One outlier was identified using Grubbs' test (p < 0.01) and excluded from the analysis; see Additional file 1.

[2] = Plasma binding (unbound fraction by ultracentrifugation); type: in vitro ADME; conditions: 5 μM drug, mean, n = 3
Protocol: Unbound fractions in brain homogenate and plasma were determined by ultracentrifugation as described previously. Briefly, drug-spiked matrices (5 μM drug in plasma or brain homogenate) were centrifuged at 600,000 g for 5 h at 37 °C (plasma) or 5 °C (brain). Aliquots of the middle (water) layer were added to an equal volume of blank matrix and extracted with 5 volumes of acetonitrile containing internal standard. Aliquots of the original spiked matrix were mixed with an equal volume of blank matrix and 2 volumes of plasma ultrafiltrate (plasma) or phosphate-buffered saline (tissue) and extracted with 10 volumes of acetonitrile. Extracts were centrifuged and analyzed by LC-MS-MS. Fraction unbound was calculated from the ratio of concentration in the water layer to that in the original spiked matrix, corrected for dilution as described previously.

mice = test: Fatalities and behavioral effects after i.p. administration; conditions: 100 mg kg^-1
Protocol: Experiments were performed between 10 am and 6 pm. Mice were not used in other experiments, or exposed to other drugs, before testing began.
Doses are reported by weight of the specified salt. Intraperitoneal injections were administered in distilled water vehicle (10 mL kg^-1). Body mass was measured to ±0.1 g. Some values were inadvertently measured on a low-precision balance (± 2.5 g); these timepoints were replicated at ±0.1 g.

P-gp (human MDR1) = target: T1, P-gp (human MDR1) (Homo sapiens, UniProt P08183); test: LLC-PK1-MDR1 cell permeation and efflux; type: in vitro ADME; conditions: pig (LLC-PK1 cells) transfected with human MDR1, LLC-PK1, 5 μM, 0.1% BSA, 120 min, n = 2
T1 construct: expressed in transfected cells; host or cells: LLC-PK1 (pig kidney epithelial cells) transfected with human MDR1 at Amgen
Protocol: (§1) Pig kidney epithelial cells (LLC-PK1) were obtained from American Type Culture Collection (Manassas, VA). Transfection with human MDR1 gene was conducted at Amgen (Thousand Oaks, CA). Bi-directional permeation assays were performed as described previously. […] Cells were seeded onto Transwell filter membranes (0.4 μm pore size, surface area = 0.7 cm2) at a density of 200,000 cells/well. Compound incubations (in duplicate) were performed 5 days post-seeding. To determine efflux, compounds were tested at 5 μM in the presence of 0.1% BSA. […] Samples were analyzed by LC-MS-MS.

human P-gp = target: T2, human P-gp (Homo sapiens, UniProt P08183); test: LLC-PK1-MDR1 cell permeation and efflux; type: in vitro ADME; conditions: cells expressing human P-gp
T2 construct: expressed in transfected cells; host or cells: LLC-PK1 (pig kidney epithelial cells) transfected with human MDR1 at Amgen
Protocol: as §1

[3] = male, Swiss-Webster, mouse, ip, plasma NCA, 10 mg/kg i.p.
[4] = male, Swiss-Webster, mouse, plasma, intraperitoneal, read-out: Conc (plasma, NCA input)
[5] = male, Swiss-Webster, mouse, plasma, ip, 10 mg/kg i.p., read-out: mean (plasma)
[6] = male, Swiss-Webster, mouse, plasma, ip, 10 mg/kg i.p., individual mice, read-out: [drug],plasma (free base equivalent)
[7] = within 1 hour, 10 mg kg^-1 i.p.
[8] = within 4 hours, 10 mg kg^-1 i.p.

T2 sequence (P08183 whole entry): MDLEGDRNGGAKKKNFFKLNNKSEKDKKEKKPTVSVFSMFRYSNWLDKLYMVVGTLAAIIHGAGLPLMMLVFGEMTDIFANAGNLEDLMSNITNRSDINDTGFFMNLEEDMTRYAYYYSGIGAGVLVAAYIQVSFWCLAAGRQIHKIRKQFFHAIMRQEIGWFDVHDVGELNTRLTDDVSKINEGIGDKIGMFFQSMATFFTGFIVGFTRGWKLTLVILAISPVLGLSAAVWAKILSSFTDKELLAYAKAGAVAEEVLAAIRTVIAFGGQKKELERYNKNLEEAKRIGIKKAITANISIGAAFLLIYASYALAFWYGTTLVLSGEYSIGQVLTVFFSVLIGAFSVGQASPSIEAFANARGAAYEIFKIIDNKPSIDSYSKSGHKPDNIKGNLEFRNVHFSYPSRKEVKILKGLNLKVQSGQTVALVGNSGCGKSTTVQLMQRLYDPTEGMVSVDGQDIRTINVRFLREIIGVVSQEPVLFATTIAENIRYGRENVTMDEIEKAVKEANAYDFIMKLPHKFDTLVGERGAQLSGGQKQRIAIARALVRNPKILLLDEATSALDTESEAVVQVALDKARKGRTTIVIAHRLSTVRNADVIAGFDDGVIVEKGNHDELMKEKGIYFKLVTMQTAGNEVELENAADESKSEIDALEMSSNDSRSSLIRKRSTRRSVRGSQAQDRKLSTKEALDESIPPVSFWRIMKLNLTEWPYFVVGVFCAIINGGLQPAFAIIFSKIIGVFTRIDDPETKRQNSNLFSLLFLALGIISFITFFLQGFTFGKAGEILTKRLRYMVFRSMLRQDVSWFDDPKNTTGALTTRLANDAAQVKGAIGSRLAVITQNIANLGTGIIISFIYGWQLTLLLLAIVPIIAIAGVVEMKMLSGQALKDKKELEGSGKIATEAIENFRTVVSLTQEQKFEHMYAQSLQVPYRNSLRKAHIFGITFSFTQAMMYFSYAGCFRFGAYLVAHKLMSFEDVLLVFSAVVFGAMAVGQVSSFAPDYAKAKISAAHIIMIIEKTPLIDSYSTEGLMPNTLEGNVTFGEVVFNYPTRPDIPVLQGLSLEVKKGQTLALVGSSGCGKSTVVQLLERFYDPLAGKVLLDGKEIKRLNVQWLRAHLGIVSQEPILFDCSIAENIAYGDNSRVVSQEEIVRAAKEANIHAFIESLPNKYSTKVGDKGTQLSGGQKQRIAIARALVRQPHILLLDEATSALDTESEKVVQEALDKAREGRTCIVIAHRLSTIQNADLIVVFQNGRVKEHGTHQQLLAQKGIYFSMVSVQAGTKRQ
T1 sequence (P08183 whole entry): as above

Compound `Oc1ccc2c3c1O[C@H]1c4[nH]c5c(c4C[C@@]4(O)[C@@H](C2)N(CC2CC2)CC[C@]314)C[C@@]1(O)[C@H]2Cc3ccc(O)c4c3[C@@]1(CCN2CC1CC1)[C@H]5O4` [nor-BNI, norbinaltorphimine] has an AUC(0-t) [1, 3] of 5910 ng·h/mL, a Tmax [1, 3] of 0.5 h and a k el ([1]; male, Swiss-Webster, mouse, ip, plasma NCA, 10 mg/kg i.p., read-out: Lambda_z (converted)) of 2.28e-05 s⁻¹. The MRT inf ([1]; male, Swiss-Webster, mouse, ip, plasma NCA, 10 mg/kg i.p., read-out: MRT 0-inf_obs) was 6 h, the half-life ([1]; male, Swiss-Webster, mouse, ip, plasma NCA, 10 mg/kg i.p., read-out: t1/2 (converted)) was 8.46 h and the Cmax ([1]; male, Swiss-Webster, mouse, ip, plasma, 10 mg kg^-1 i.p., mice, read-out: C max,p) was 4020 ng/mL. It also gave a concentration at 0.5 h [1, 4] of 4020 ng/mL, a concentration at 1 h [1, 4] of 1790 ng/mL and a concentration at 2 h [1, 4] of 339 ng/mL. The concentration at 4 h [1, 4] was 148 ng/mL, the concentration at 24 h [1, 4] was 42 ng/mL and the concentration at 0.5 h [1, 5] was 4020 ng/mL. The concentration at 1 h [1, 5] was 1790 ng/mL, the concentration at 2 h [1, 6] was 366 ng/mL and the concentration at 2 h [1, 5] was 339 ng/mL. For the same compound, the concentration at 4 h [1, 6] was 116 ng/mL, the concentration at 4 h [1, 5] was 148 ng/mL and the concentration at 24 h ([1]; male, Swiss-Webster, mouse, plasma, ip, 10 mg/kg i.p., <MRC substituted by MRC/2, read-out: mean (plasma)) was 42 ng/mL. The AUC(0-inf) ([1]; male, Swiss-Webster, mouse, plasma, ip, plasma NCA, 10 mg/kg i.p., read-out: AUC 0-inf_obs) was 6420 ng·h/mL, the CL/F ([1]; male, Swiss-Webster, mouse, plasma, ip, plasma NCA, 10 mg/kg i.p., read-out: Cl/F_obs (converted)) was 26 mL/min/kg and the Vd/F ([1]; male, Swiss-Webster, mouse, plasma, ip, plasma NCA, 10 mg/kg i.p., read-out: Vz/F_obs) was 19 L/kg. For the same compound, the AUC(0-inf) ([1]; male, Swiss-Webster, mouse, plasma, ip, plasma, 10 mg kg^-1 i.p., non-compartmental analysis, read-out: AUC 0–∞,p) was 6420 ng·h/mL, the CL/F ([1]; male, Swiss-Webster, mouse, plasma, ip, plasma, 10 mg kg^-1 i.p., non-compartmental analysis, read-out: CL/F (converted)) was 28.3 mL/min/kg and the Vd/F ([1]; male, Swiss-Webster, mouse, plasma, ip, plasma, 10 mg kg^-1 i.p., non-compartmental analysis, read-out: V z /F) was 19 L/kg. The “AUMC 0-inf_obs” value ([1]; plasma NCA, 10 mg/kg i.p.) was 38503.5 ng/ml*h^2, the Tlag ([1]; plasma NCA, 10 mg/kg i.p.) was 0 h and the “C max,brain,u” value ([1]; unbound brain, 10 mg kg^-1 i.p., in vivo brain binding assumed at least 3-fold greater than homogenate) was under 26 nM. For the same compound, the “Decline of mean brain level from peak” value [1, 7] was 31%, the “Decline of mean plasma concentration from peak” value [1, 7] was 56% and the “Decline of mean plasma concentration from peak” value ([1]; within 2 hours, 10 mg kg^-1 i.p.) was 92%. For the same compound, the “Decline of brain levels” value [1, 8] was “at least 75%”, the “Decline of mean plasma concentration from peak” value [1, 8] was “at least 80%” and the fraction unbound at 5 h, 5 μM [2] was 0.51. The Behavioral effects observed (mice) was “Only mild behavioral effects, such as hiccup-like spasms and shivering”, the Fatalities (mice) was “no fatalities” and the Papp A→B at 120 min, 5 μM (P-gp (human MDR1); apical to basolateral) was 0.2 ×10⁻⁶ cm/s. For the same compound, the Papp B→A at 120 min, 5 μM (P-gp (human MDR1); basolateral to apical) was 0.3 ×10⁻⁶ cm/s and the “Active transport / P-gp-mediated efflux” value (human P-gp) was “did not; also recorded: No active transport”.

Reference: paper PMC3411462, “Long-acting κ opioid antagonists nor-BNI, GNTI and JDTic: pharmacokinetics in mice and lipophilicity” (BMC Pharmacology, 2012)
